Source: the supplement of paper PMC11451515

Columns and labels:
Conditions in all cases: 48 h
P12-Ichikawa [1] = assay: AUC of viability dose-response curve (% viability x log10 dose units); higher = less sensitive
Method in brief: (§1)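 Library compounds in DMSO were applied for 48 h at 37°C at 11 threefold doses (47 μM to 0.79 nM) to medium-adapted leukemia cells in 1536-well plates holding 500 or 1000 cells/well. Luminescence from CellTiter-Glo One was normalised plate by plate against DMSO and cell-free wells. Area under the curve came from trapezoidal integration of a log-logistic fit, after scaling curves that rose above full viability and discarding those that failed quality control. The fit had four parameters and used log10 doses.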

SEM cells [2] = assay: as above
Method in brief: as §1

NOMO1 [3] = assay: as above
Method in brief: as §1

P12-Ichikawa [4] = assay: cell viability relative to DMSO control; higher = less cytotoxic
Method in brief: (§2)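 NOMO1 or SEM (500 cells/well) or P12-Ichikawa (1000 cells/well) leukemia cells were adapted for at least four passages in each medium. They were seeded in 1536-well plates (5 μl) and pin-dosed with library compounds in DMSO over an 11-point threefold series, 47 μM to 0.79 nM. CellTiter-Glo One luminescence was read after 48 h at 37°C. Viability is the per-plate percentage relative to DMSO wells, with cell-free wells as background.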

SEM cells [5] = assay: as above
Method in brief: as §2

NOMO1 [6] = assay: as above
Method in brief: as §2

CCC(=O)OC1CCC2C3CCC/4=C/C(=O)CC[C@@]4(C)C3CC[C@]12C (stereo not given in full)
AUC of viability dose-response curve
Conditions | NOMO1 [3] | P12-Ichikawa [1] | SEM cells [2]
HPLM + 10% dialyzed FBS | 457 | 471 | 450
RPMI 5 mM glucose + 10% FBS | 456 | 473 | 460
RPMI 5 mM glucose + 10% dialyzed FBS | 458 | 466 | 448

cell viability [%]
Conditions | NOMO1 [6] | P12-Ichikawa [4] | SEM cells [5]
HPLM + 10% dialyzed FBS, 0.000781 µM | 89.8 | 116 | 104
HPLM + 10% dialyzed FBS, 0.00234 µM | 112 | 120 | 107
HPLM + 10% dialyzed FBS, 0.00702 µM | 128 | 126 | 110
HPLM + 10% dialyzed FBS, 0.0211 µM | 120 | 129 | 118
HPLM + 10% dialyzed FBS, 0.0632 µM | 122 | 126 | 132
HPLM + 10% dialyzed FBS, 0.19 µM | 118 | 127 | 115
HPLM + 10% dialyzed FBS, 0.569 µM | 130 | 132 | 128
HPLM + 10% dialyzed FBS, 1.71 µM | 136 | 128 | 141
HPLM + 10% dialyzed FBS, 5.12 µM | 136 | 129 | 123
HPLM + 10% dialyzed FBS, 15.4 µM | 129 | 125 | 121
HPLM + 10% dialyzed FBS, 46.1 µM | 135 | 117 | 137
RPMI 5 mM glucose + 10% FBS, 0.000781 µM | – | – | 102
RPMI 5 mM glucose + 10% FBS, 0.00234 µM | – | – | 107
RPMI 5 mM glucose + 10% FBS, 0.00702 µM | – | – | 116
RPMI 5 mM glucose + 10% FBS, 0.0211 µM | – | – | 119
RPMI 5 mM glucose + 10% FBS, 0.0632 µM | – | – | 133
RPMI 5 mM glucose + 10% FBS, 0.19 µM | – | – | 138
RPMI 5 mM glucose + 10% FBS, 0.569 µM | – | – | 124
RPMI 5 mM glucose + 10% FBS, 1.71 µM | – | – | 128
RPMI 5 mM glucose + 10% FBS, 5.12 µM | – | – | 120
RPMI 5 mM glucose + 10% FBS, 15.4 µM | – | – | 125
RPMI 5 mM glucose + 10% FBS, 46.1 µM | – | – | 117
RPMI 5 mM glucose + 10% dialyzed FBS, 0.000781 µM | – | – | 102
RPMI 5 mM glucose + 10% dialyzed FBS, 0.00234 µM | – | – | 111
RPMI 5 mM glucose + 10% dialyzed FBS, 0.00702 µM | – | – | 102
RPMI 5 mM glucose + 10% dialyzed FBS, 0.0211 µM | – | – | 114
RPMI 5 mM glucose + 10% dialyzed FBS, 0.0632 µM | – | – | 139
RPMI 5 mM glucose + 10% dialyzed FBS, 0.19 µM | – | – | 114
RPMI 5 mM glucose + 10% dialyzed FBS, 0.569 µM | – | – | 115
RPMI 5 mM glucose + 10% dialyzed FBS, 1.71 µM | – | – | 137
RPMI 5 mM glucose + 10% dialyzed FBS, 5.12 µM | – | – | 120
RPMI 5 mM glucose + 10% dialyzed FBS, 15.4 µM | – | – | 127
RPMI 5 mM glucose + 10% dialyzed FBS, 46.1 µM | – | – | 127

OCCNC1CCCc2c1[nH]c1ccc(-c3ccccc3)cc21 (stereo not given)
AUC of viability dose-response curve
Conditions | NOMO1 [3] | P12-Ichikawa [1] | SEM cells [2]
HPLM + 10% dialyzed FBS | 448 | 444 | 409
RPMI 5 mM glucose + 10% FBS | 454 | 441 | 413
RPMI 5 mM glucose + 10% dialyzed FBS | 453 | 446 | 416

cell viability [%]
Conditions | NOMO1 [6] | P12-Ichikawa [4] | SEM cells [5]
HPLM + 10% dialyzed FBS, 0.000781 µM | 81.8 | 100 | 81.1
HPLM + 10% dialyzed FBS, 0.00234 µM | 93.5 | 107 | 86.7
HPLM + 10% dialyzed FBS, 0.00702 µM | 106 | 106 | 91.5
HPLM + 10% dialyzed FBS, 0.0211 µM | 105 | 105 | 84.7
HPLM + 10% dialyzed FBS, 0.0632 µM | 117 | 110 | 106
HPLM + 10% dialyzed FBS, 0.19 µM | 112 | 110 | 101
HPLM + 10% dialyzed FBS, 0.569 µM | 109 | 115 | 90.2
HPLM + 10% dialyzed FBS, 1.71 µM | 105 | 108 | 100
HPLM + 10% dialyzed FBS, 5.12 µM | 104 | 111 | 85.4
HPLM + 10% dialyzed FBS, 15.4 µM | 87.1 | 78.4 | 67.3
HPLM + 10% dialyzed FBS, 46.1 µM | 11.2 | 16.6 | 19.5
RPMI 5 mM glucose + 10% FBS, 0.000781 µM | 93.4 | 103 | 99.6
RPMI 5 mM glucose + 10% FBS, 0.00234 µM | 103 | 111 | 87.8
RPMI 5 mM glucose + 10% FBS, 0.00702 µM | 109 | 109 | 101
RPMI 5 mM glucose + 10% FBS, 0.0211 µM | 105 | 108 | 109
RPMI 5 mM glucose + 10% FBS, 0.0632 µM | 111 | 114 | 108
RPMI 5 mM glucose + 10% FBS, 0.19 µM | 96.5 | 108 | 105
RPMI 5 mM glucose + 10% FBS, 0.569 µM | 109 | 114 | 88.7
RPMI 5 mM glucose + 10% FBS, 1.71 µM | 110 | 118 | 91.6
RPMI 5 mM glucose + 10% FBS, 5.12 µM | 100 | 110 | 74
RPMI 5 mM glucose + 10% FBS, 15.4 µM | 98.6 | 73.5 | 56.1
RPMI 5 mM glucose + 10% FBS, 46.1 µM | 14.7 | 18.2 | 5.82
RPMI 5 mM glucose + 10% dialyzed FBS, 0.000781 µM | 83.7 | 105 | 85.6
RPMI 5 mM glucose + 10% dialyzed FBS, 0.00234 µM | 97.4 | 111 | 87.9
RPMI 5 mM glucose + 10% dialyzed FBS, 0.00702 µM | 106 | 113 | 89.7
RPMI 5 mM glucose + 10% dialyzed FBS, 0.0211 µM | 105 | 109 | 96.1
RPMI 5 mM glucose + 10% dialyzed FBS, 0.0632 µM | 111 | 107 | 88.7
RPMI 5 mM glucose + 10% dialyzed FBS, 0.19 µM | 99.4 | 114 | 104
RPMI 5 mM glucose + 10% dialyzed FBS, 0.569 µM | 104 | 119 | 99
RPMI 5 mM glucose + 10% dialyzed FBS, 1.71 µM | 96.3 | 114 | 94.2
RPMI 5 mM glucose + 10% dialyzed FBS, 5.12 µM | 105 | 111 | 94.7
RPMI 5 mM glucose + 10% dialyzed FBS, 15.4 µM | 88.6 | 80.4 | 68.2
RPMI 5 mM glucose + 10% dialyzed FBS, 46.1 µM | 22.7 | 28.9 | 22.9

CCCNCC(O)COc1ccccc1C(=O)CCc1ccccc1 (stereo not given)
AUC of viability dose-response curve
Conditions | NOMO1 [3] | P12-Ichikawa [1] | SEM cells [2]
HPLM + 10% dialyzed FBS | 457 | 450 | 438
RPMI 5 mM glucose + 10% FBS | 391 | 452 | 444
RPMI 5 mM glucose + 10% dialyzed FBS | 473 | 458 | 432

cell viability [%]
Conditions | NOMO1 [6] | P12-Ichikawa [4] | SEM cells [5]
HPLM + 10% dialyzed FBS, 0.000781 µM | 82.6 | 101 | 86.5
HPLM + 10% dialyzed FBS, 0.00234 µM | 117 | 98.9 | 86.5
HPLM + 10% dialyzed FBS, 0.00702 µM | 113 | 107 | 117
HPLM + 10% dialyzed FBS, 0.0211 µM | 106 | 103 | 93.3
HPLM + 10% dialyzed FBS, 0.0632 µM | 121 | 111 | 98.7
HPLM + 10% dialyzed FBS, 0.19 µM | 120 | 106 | 54.2
HPLM + 10% dialyzed FBS, 0.569 µM | 123 | 114 | 105
HPLM + 10% dialyzed FBS, 1.71 µM | 112 | 112 | 112
HPLM + 10% dialyzed FBS, 5.12 µM | 124 | 118 | 117
HPLM + 10% dialyzed FBS, 15.4 µM | 114 | 114 | 108
HPLM + 10% dialyzed FBS, 46.1 µM | 96.9 | 115 | 99.6
RPMI 5 mM glucose + 10% FBS, 0.000781 µM | 23.6 | 112 | 98.8
RPMI 5 mM glucose + 10% FBS, 0.00234 µM | 106 | 105 | 95.1
RPMI 5 mM glucose + 10% FBS, 0.00702 µM | 106 | 110 | 98.1
RPMI 5 mM glucose + 10% FBS, 0.0211 µM | 117 | 116 | 104
RPMI 5 mM glucose + 10% FBS, 0.0632 µM | 111 | 114 | 107
RPMI 5 mM glucose + 10% FBS, 0.19 µM | 109 | 108 | 60.4
RPMI 5 mM glucose + 10% FBS, 0.569 µM | 111 | 113 | 125
RPMI 5 mM glucose + 10% FBS, 1.71 µM | 122 | 115 | 109
RPMI 5 mM glucose + 10% FBS, 5.12 µM | 124 | 123 | 124
RPMI 5 mM glucose + 10% FBS, 15.4 µM | 111 | 128 | 116
RPMI 5 mM glucose + 10% FBS, 46.1 µM | 107 | 110 | 97.2
RPMI 5 mM glucose + 10% dialyzed FBS, 0.000781 µM | 108 | 93.4 | 101
RPMI 5 mM glucose + 10% dialyzed FBS, 0.00234 µM | 98.5 | 103 | 85.1
RPMI 5 mM glucose + 10% dialyzed FBS, 0.00702 µM | 124 | 98.1 | 109
RPMI 5 mM glucose + 10% dialyzed FBS, 0.0211 µM | 122 | 103 | 90.5
RPMI 5 mM glucose + 10% dialyzed FBS, 0.0632 µM | 124 | 102 | 102
RPMI 5 mM glucose + 10% dialyzed FBS, 0.19 µM | 111 | 113 | 43.6
RPMI 5 mM glucose + 10% dialyzed FBS, 0.569 µM | 111 | 114 | 118
RPMI 5 mM glucose + 10% dialyzed FBS, 1.71 µM | 121 | 113 | 104
RPMI 5 mM glucose + 10% dialyzed FBS, 5.12 µM | 118 | 112 | 116
RPMI 5 mM glucose + 10% dialyzed FBS, 15.4 µM | 119 | 106 | 115
RPMI 5 mM glucose + 10% dialyzed FBS, 46.1 µM | 103 | 98.4 | 110
